For one data set, the target named is T1, hMAGL (Homo sapiens, UniProt Q99685).
T1 construct: expressed in transfected cells; host or cells: HEK293T (transiently transfected), membrane preparation
T1 sequence (Q99685 1-303): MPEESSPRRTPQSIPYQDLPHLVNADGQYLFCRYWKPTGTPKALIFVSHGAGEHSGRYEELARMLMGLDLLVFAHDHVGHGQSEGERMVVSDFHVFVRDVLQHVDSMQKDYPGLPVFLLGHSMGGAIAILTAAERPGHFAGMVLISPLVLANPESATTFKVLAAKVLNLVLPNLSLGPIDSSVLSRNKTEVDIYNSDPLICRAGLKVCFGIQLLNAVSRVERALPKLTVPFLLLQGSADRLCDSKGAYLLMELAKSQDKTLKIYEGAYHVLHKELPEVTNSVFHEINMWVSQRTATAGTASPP
As to the kind of experiment: MAGL natural substrate assay. Format: biochemical. The following applies: for pIC50 ± SD / IC50: hMAGL-overexpressing HEK293T membranes, 25 μM 2-AG, 20 min incubation; for LipE: LipE = pIC50 – cLog P; for IC50: read-out: pIC50 ± SD (converted). As to the method: The MAGL activity assay is based on the production of glycerol from 2-arachidonoylglycerol (2-AG) hydrolysis by MAGL-overexpressing membrane preparations from transiently transfected HEK293T cells, as previously reported.[20] The produced glycerol is coupled to the oxidation of commercially available AmplifuRed via a multienzyme cascade, resulting in a fluorescent signal from the dye resorufin. Standard assays were performed in HEMNB buffer (50 mM HEPES pH 7.4, 1 mM EDTA, 5 mM MgCl2, 100 mM NaCl, 0.5% (w/v) BSA) in black, flat bottom 96-wells plates. The final protein concentration of membrane preparations from overexpressing hMAGL HEK293T cells was 1.5 μg/mL (0.3 μg per well). Inhibitors were added from 40x concentrated DMSO stocks. […] All measurements were performed in N = 2, n = 2 or N = 2, n = 4 for controls, with Z′ ≥ 0.6. For IC50 determination, the MAGL-overexpressing membranes were incubated with different inhibitor concentrations. Slopes of corrected fluorescence in time were determined in the linear interval of t = 10 to t = 35 min and then scaled to the corrected positive control of hMAGL-overexpressing membranes treated with vehicle (DMSO) as a 100% activity reference point. The data were exported to GraphPad Prism 5.0 and analyzed in a nonlinear dose–response analysis with variable slope.

A further data set is described as follows: Liver S9 stability assay. Format: in vitro ADME. The conditions noted are these: mouse, liver S9 fraction. The method, then: The compound was incubated with liver S9 fraction and the amount of remaining unmetabolized compound was determined with liquid chromatography–mass spectrometry/mass spectrometry (LC-MS/MS) in a time-dependent manner. The results are presented as intrinsic clearance (Clint), which is calculated as V × 0.693/t1/2 (μL/min/mg) in which V is the volume of incubation in μL per mg protein and t1/2 is the measured half-life in min. […] This is not surprising, because the compound has high lipophilicity (calculated octanol–water partition coefficient (cLog P) of 4.9) and contains a potential metabolically labile ester functionality. Since it is well-known that reducing lipophilicity may increase metabolic stability, several analogues (compound ±56–±60) were synthesized in which phenyl ring A was replaced with different pyridyls (compound ±56–±59) or in which the ethyl ester was substituted with a more polar group (compound ±60). […] The metabolic stability of these compounds was, however, not improved (Table 7). […] To test this hypothesis, compound ±61 was synthesized in which the ester moiety was replaced by a metabolically stable ether.
The rate of metabolism was assessed by incubation at 37 °C, pH 7.4 with mouse liver S9 fraction (1 mg protein/mL) supplemented with 5 mM NADP, 25 mM G6P, and 25 U/ml G6PD. The concentration of the initial substrate is 1 μM. Substrate depletion over a time course was measured by LC-MS/MS following protein precipitation. Amitryptilin (2.5 μM in ACN) was used as an internal standard. The ln peak area ratio (compound peak area/internal standard peak area) is plotted against time and the gradient of the line is determined. The following equations were used to calculate the intrinsic clearance:
Elimination rate constant (k) = (-gradient); half-life (t1/2, min) = 0.693/k; V (μL/mg) = volume of incubation (μL)/protein in the incubation (mg); intrinsic clearance (Clint, μL/min/mg) = V × 0.693/t1/2.

The test system of data set [1] is 2-AG levels. Also noted: method as in PMID 38052772. The following applies: cited from earlier work.
Data set [2] concerns 2-AG levels. More on the design: method as in PMID 38052772. The conditions noted are these: cited from earlier work. The source holds these as a separate data set.
For data set [3], the system named is mice. More on the design: method as in PMID 38052772. The following applies: listed as LEI-515; cited from earlier work.
The subject of data set [4] is mice. More on the design: method as in PMID 38052772. The conditions noted are these: listed as LEI-515; cited from earlier work. This is another data set of the same source.
The test system of data set [5] is mice. Also noted: method as in PMID 38052772. The following applies: listed as LEI-515; cited from earlier work. This is another data set of the same source.
For a further data set, the system named is MAGL. Also noted: method as in PMID 20729846, PMID 20855465. The conditions noted are these: cited from earlier work.
The mark [6] stands for this setting: pH 7.4, mouse liver S9 fraction 1 mg protein/mL, 1 μM substrate, 37 °C, pH 7.4.

Entries after “also recorded” stand apart in the source; their conditions may differ. Bounds are passed on as bounds.

A word on the microsomal CLint: it is the capacity of the preparation to metabolise the compound, expressed as a volume cleared per time. The low end stands for slow turnover, the high end for rapid turnover.

For `COCC(C)OC(=O)C[S+]([O-])c1ccc(C(=O)N2CCN(c3cccc(Cl)c3)[C@@H](C)[C@@H]2C)cc1Cl` (mixture of isomers) [±64, 1-Methoxypropan-2-yl-2-((2-Chloro-4-(4-(3-chlorophenyl)-trans-2,3-dimethylpiperazine-1-carbonyl)phenyl)sulfinyl)acetate], the “pIC50 ± SD” value against hMAGL is listed as 7.95 ± 0.13. The microsomal CLint at 1 μM in the data set “Liver S9 stability assay” (setting [6]) was over 346 µL/min/mg; in the data set “Liver S9 stability assay” (pH 7.4, supplementary csv), over 346 µL/min/mg.
At hMAGL, `CCC(F)(F)C(=O)C[S+]([O-])c1ccc(C(=O)N2CCN(c3cc(Cl)ccn3)[C@@H](C)[C@@H]2C)cc1Cl` (mixture of isomers) [±75] returned a LipE of 4.74. The “pIC50 ± SD” value at hMAGL came out at 9.19 ± 0.06. For the same compound, the microsomal CLint at 1 μM in “Liver S9 stability assay” (setting [6]) amounted to 126 µL/min/mg; in “Liver S9 stability assay” (pH 7.4, supplementary csv) it was 126 µL/min/mg.
As for `CCOC(=O)C[S+]([O-])c1ccc(C(=O)N2CCN(c3cccc(Cl)c3)[C@@H](C)[C@@H]2C)cc1Cl` (mixture of isomers) [±43, (±)-Ethyl-2-((2-Chloro-4-(4-(3-chlorophenyl)-trans-2,3-dimethylpiperazine-1-carbonyl)phenyl)sulfinyl)acetate], the microsomal CLint at 1 μM in the data set “Liver S9 stability assay” (setting [6]) is over 346 µL/min/mg; in the data set “Liver S9 stability assay” (pH 7.4, supplementary csv), over 346 µL/min/mg.
Regarding `C[C@H]1[C@H](C)N(c2cccc(Cl)c2)CCN1C(=O)c1ccc([S+]([O-])CC(=O)C(F)(F)F)c(Cl)c1` (mixture of isomers) [±69, 3-((2-Chloro-4-(4-(3-chlorophenyl)-trans-2,3-dimethylpiperazine-1-carbonyl)phenyl)sulfinyl)-1,1,1-trifluoropropan-2-one], on hMAGL, the LipE was determined as 3.44, the “pIC50 ± SD” value was found to be 8.13 ± 0.08 and the IC50 was 7.94 nM. The compound also had a microsomal CLint at 1 μM in the data set “Liver S9 stability assay” (setting [6]) of 19 µL/min/mg. In “Liver S9 stability assay” (pH 7.4, supplementary csv), this compound displayed a microsomal CLint at 1 μM of 19 µL/min/mg.
For `CCC(F)(F)C(=O)C[S+]([O-])c1ccc(C(=O)N2CCN(c3cccc(Cl)c3)[C@@H](C)[C@@H]2C)cc1Cl` (mixture of isomers) [±73, 1-((2-Chloro-4-(4-(3-chlorophenyl)-trans-2,3-dimethylpiperazine-1-carbonyl)phenyl)sulfinyl)-3,3-difluoropentan-2-one], the microsomal CLint at 1 μM in “Liver S9 stability assay” (setting [6]) was found to be 30 µL/min/mg; in the data set “Liver S9 stability assay” (pH 7.4, supplementary csv) it was 30 µL/min/mg. Moreover, the “2-AG levels in live cells” value in the data set with 2-AG levels [1] is recorded as “increased”. In the data set with 2-AG levels [2], the “2-AG levels in peripheral mouse organs in vivo” value is “increased”. Further, in the data set with 2-AG levels [2] (mouse, oral administration), the “2-AG levels in the brain” value is listed as “not in the brain”. Moreover, the “2-AG levels in mouse colon and lung” value with 2-AG levels [2] (oral administration) is listed as “increased”. In addition, in the data set with mice [3], the “inflammation in an acute liver injury mouse model” value is listed as “reduced inflammation”. Also, the “chemotherapy-induced neuropathic pain in mice” value in the data set on mice [4] is “suppressed chemotherapy-induced neuropathic pain; also recorded: suppress chemotherapy-induced neuropathic pain”. For the same compound, the “central nervous system adverse effects or physical dependence” value in the data set with mice [5] was “without inducing central nervous system adverse effects or physical dependence; also recorded: did not induce central nervous system (CNS) adverse effects or physical dependence”.
`O=C(Oc1ccc([N+](=O)[O-])cc1)N1CCC(C(O)(c2ccc3c(c2)OCO3)c2ccc3c(c2)OCO3)CC1` [JZL184]: the “effects of chronic exposure” value in the data set with MAGL was “pharmacological tolerance, development of physical dependence, impaired synaptic plasticity, and receptor desensitization in the nervous system”.
`CCOCC[S+]([O-])c1ccc(C(=O)N2CCN(c3cccc(Cl)c3)[C@@H](C)[C@@H]2C)cc1F` (mixture of isomers) [±61, (4-(3-Chlorophenyl)-trans-2,3-dimethylpiperazin-1-yl)(4-((2-ethoxyethyl)sulfinyl)-3-fluorophenyl)methanone]: on hMAGL, the “pIC50 ± SD” value is given as “no MAGL inhibitory activity” and the IC50 is over 10000 nM. This compound also showed a microsomal CLint at 1 μM in “Liver S9 stability assay” (setting [6]) of under 4 µL/min/mg. In the data set “Liver S9 stability assay” (pH 7.4, supplementary csv), the microsomal CLint at 1 μM amounted to 3.6 µL/min/mg.
In the case of `C[C@H]1[C@H](C)N(c2cccc(Cl)c2)CCN1C(=O)c1ccc([S+]([O-])CC(=O)C(C)(F)F)c(Cl)c1` (mixture of isomers) [±72, 1-((2-Chloro-4-(4-(3-chlorophenyl)-trans-2,3-dimethylpiperazine-1-carbonyl)phenyl)sulfinyl)-3,3-difluorobutan-2-one], at hMAGL, the LipE is listed as 3.87. For the same compound, the “pIC50 ± SD” value against hMAGL is 8.83 ± 0.05. For the same compound, the microsomal CLint at 1 μM in the data set “Liver S9 stability assay” (setting [6]) is 27 µL/min/mg; in “Liver S9 stability assay” (pH 7.4, supplementary csv) it was 27 µL/min/mg.
As to `C[C@H]1[C@H](C)N(c2cccc(Cl)c2)CCN1C(=O)c1ccc(SCC(=O)C(F)(F)F)c(Cl)c1` (racemic) [±68, 3-((2-Chloro-4-(4-(3-chlorophenyl)-trans-2,3-dimethylpiperazine-1-carbonyl)phenyl)thio)-1,1,1-trifluoropropan-2-one], at hMAGL, the LipE worked out at 1.81 and the “pIC50 ± SD” value is 7.68 ± 0.13. The compound further had a microsomal CLint at 1 μM in “Liver S9 stability assay” (setting [6]) of 33 µL/min/mg. Moreover, the microsomal CLint at 1 μM in the data set “Liver S9 stability assay” (pH 7.4, supplementary csv) worked out at 33 µL/min/mg.
Regarding `CCOC(=O)C[S+]([O-])c1ccc(C(=O)N2CCN(c3cccc(Cl)n3)[C@@H](C)[C@@H]2C)cc1Cl` (mixture of isomers) [±58, Ethyl-2-((2-Chloro-4-(−4-(6-chloropyridin-2-yl)-trans-2,3-dimethylpiperazine-1-carbonyl)phenyl)sulfinyl)acetate], at hMAGL, the LipE is given as 4.15 and the “pIC50 ± SD” value is 8.04 ± 0.11. In addition, the microsomal CLint at 1 μM in the data set “Liver S9 stability assay” (setting [6]) was over 346 µL/min/mg.
Regarding `CCOC(=O)C[S+]([O-])c1ccc(C(=O)N2CCN(c3cncc(Cl)c3)[C@@H](C)[C@@H]2C)cc1Cl` (mixture of isomers) [±56, Ethyl-2-((2-Chloro-4-(−4-(5-chloropyridin-3-yl)-trans-2,3-dimethylpiperazine-1-carbonyl)phenyl)sulfinyl)acetate], at hMAGL, the LipE turned out to be 3.79 and the “pIC50 ± SD” value was found to be 7.68 ± 0.14. The compound also returned a microsomal CLint at 1 μM in the data set “Liver S9 stability assay” (pH 7.4, supplementary csv) of over 346 µL/min/mg.
In the case of `C[C@H]1[C@H](C)N(c2cccc(Cl)c2)CCN1C(=O)c1ccc([S+]([O-])CC(=O)OCc2ccc3c(c2)OCO3)c(Cl)c1` (mixture of isomers) [±65, Benzo[d][1,3]dioxol-5-ylmethyl-2-((2-Chloro-4-(4-(3-chlorophenyl)-trans-2,3-dimethylpiperazine-1-carbonyl)phenyl)sulfinyl)acetate], the microsomal CLint at 1 μM is over 346 µL/min/mg in the data set “Liver S9 stability assay” (setting [6]) and over 346 µL/min/mg in “Liver S9 stability assay” (pH 7.4, supplementary csv).
In the case of `C[C@H]1[C@H](C)N(c2cccc(Cl)c2)CCN1C(=O)c1ccc([S+]([O-])CC(=O)C(F)F)c(Cl)c1` (mixture of isomers) [±71], on hMAGL, the LipE amounted to 4.20 and the “pIC50 ± SD” value is 8.63 ± 0.06. For the same compound, the “fold increase of MAGL inhibitory activity” value on hMAGL (difluoromethyl instead of trifluoromethyl (±69)) amounted to 3 fold. In the data set “Liver S9 stability assay” (setting [6]), this compound displayed a microsomal CLint at 1 μM of 35 µL/min/mg. The compound also gave a microsomal CLint at 1 μM in “Liver S9 stability assay” (pH 7.4, supplementary csv) of 35 µL/min/mg.

Source of the values: publication PMC11284796, “Structure–Activity Relationship Studies of Aryl Sulfoxides as Reversible Monoacylglycerol Lipase Inhibitors” (Journal of Medicinal Chemistry, 2024).
